Reference: patent US7071341B2, “α-Glucosidase inhibitors and their synthesis from a natural source” (Council of Scientific and Industrial Research, priority 2003, dated 2006)
Entries after “also recorded” stand apart in the source; their conditions may differ.

Experiments:
yeast α-glucosidase = assay: α-glucosidase inhibitory assay by the chromogenic method; assay type: biochemical; conditions: for IC50: yeast α-glucosidase [Sigma], substrate p-nitrophenyl-α-D-glucopyranoside, pH 7.00, absorbance at 405 nm; for α-glucosidase inhibitory potency compared with the standard drug 1-deoxy nojirimycin: comparison in words
Description: The α-glucosidase inhibitory assay was done by the chromogenic method. In brief 10 μl of test compounds dissolved in DMSO (5 mg/ml and subsequent dilutions) were incubated for 5 min. with 50 μl of yeast α-glucosidase [Sigma] enzyme prepared in 100 mM phosphate buffer (pH 7.00). After 5 minutes of incubation, 50 μl of 5 mM substrate (p-nitrophenyl-α-D-glucopyranoside [Sigma] prepared in the same buffer) was added. The pre-substrate and 5-min post-substrate addition absorbances were recorded at 405 nm spectrophotometrically. The increase in absorbance from pre-substrates addition to post substrates reaction were obtained.

Row | melting point [°C] | IC50 (yeast α-glucosidase) [µM] | Structure (SMILES) | also measured
1 | 90 | 54.5 | CCCCCCCCCCCCCCCCCC(=O)OC1Cc2ccc(O)c(O)c2OC1c1ccc(O)c(O)c1 (single isomer, unassigned; (-)) [Compound 4g, (−)-3-O-Steroyl mesquitol] | –
2 | – | 13.5 | CCCCCCCCCC(=O)O[C@H]1Cc2ccc(O)c(O)c2O[C@@H]1c1ccc(O)c(O)c1 [Compound 4d, (−)-3-O-Decanoyl mesquitol] | α-glucosidase inhibitory potency compared with the standard drug 1-deoxy nojirimycin (yeast α-glucosidase; listed as decanoyl ester of (−) mesquitol): more potent α-glucosidase inhibitors than the standard drug 1-deoxy nojirimycin; also recorded: more potent than the standard α-glucosidase inhibitor 1-deoxy nojirimycin
3 | 80 | 46.2 | CCCC(=O)OC1Cc2ccc(O)c(O)c2OC1c1ccc(O)c(O)c1 (single isomer, unassigned; (-)) [Compound 4b, (−)-3-O-butyryl mesquitol] | –
4 | 83 | 12.6 | CCCCCCCCCCCCCC(=O)OC1Cc2ccc(O)c(O)c2OC1c1ccc(O)c(O)c1 (single isomer, unassigned; (-)) [Compound 4e, (−)-3-O-myristoyl mesquitol] | α-glucosidase inhibitory potency compared with the standard drug 1-deoxy nojirimycin (yeast α-glucosidase; listed as myristoyl ester of (−) mesquitol): more potent α-glucosidase inhibitors than the standard drug 1-deoxy nojirimycin; also recorded: more potent than the standard α-glucosidase inhibitor 1-deoxy nojirimycin
5 | 254 | 67.3 | COc1ccc(C(=O)OC2Cc3ccc(O)c(O)c3OC2c2ccc(O)c(O)c2)cc1 (single isomer, unassigned; (-)) [Compound 4j, (−)-3-O-(p-methoxybenzoyl) mesquitol] | –
6 | 248 | 77.8 | O=C(OC1Cc2ccc(O)c(O)c2OC1c1ccc(O)c(O)c1)c1ccccc1 (single isomer, unassigned; (-)) [Compound 4h, (−)-3-O-benzoyl mesquitol] | α-glucosidase inhibitory potency compared with the standard drug 1-deoxy nojirimycin (yeast α-glucosidase; listed as benzoyl ester of (−) mesquitol): more potent α-glucosidase inhibitor than the standard drug 1-deoxy nojirimycin
7 | 81 | 49.3 | CCCCCC(=O)OC1Cc2ccc(O)c(O)c2OC1c1ccc(O)c(O)c1 (single isomer, unassigned; (-)) [Compound 4c, (−)-3-O-hexanoyl mesquitol] | –
8 | – | 32.8 | O=C(O[C@H]1Cc2ccc(O)c(O)c2O[C@@H]1c1ccc(O)c(O)c1)c1ccc(F)cc1 [Compound 4k, (−)-3-O-(p-flourobenzoyl) mesquitol] | α-glucosidase inhibitory potency compared with the standard drug 1-deoxy nojirimycin (yeast α-glucosidase; listed as p-flourobenzyl ester of (−) mesquitol): more potent α-glucosidase inhibitor than the standard drug 1-deoxy nojirimycin
9 | 252 | 82.3 | Oc1ccc(C2Oc3c(ccc(O)c3O)CC2O)cc1O (single isomer, unassigned; (-)) [Compound 1, (−)-mesquitol] | α-glucosidase inhibitory activity, in words (yeast α-glucosidase): potent α-glucosidase inhibitory activity
10 | 78 | 46.3 | CC(=O)OC1Cc2ccc(O)c(O)c2OC1c1ccc(O)c(O)c1 (single isomer, unassigned; (-)) [Compound 4a, (−)-3-O-acetyl mesquitol] | –
11 | 87 | 9.56 | CCCCCCCCCCCCCCCC(=O)OC1Cc2ccc(O)c(O)c2OC1c1ccc(O)c(O)c1 (single isomer, unassigned; (-)) [Compound 4f, (−)-3-O-Palmitoyl mesquitol] | α-glucosidase inhibitory potency compared with the standard drug 1-deoxy nojirimycin (yeast α-glucosidase; listed as palmitoyl ester of (−) mesquitol): more potent α-glucosidase inhibitors than the standard drug 1-deoxy nojirimycin; also recorded: more potent than the standard α-glucosidase inhibitor 1-deoxy nojirimycin
12 | 252 | 43.3 | O=C(OC1Cc2ccc(O)c(O)c2OC1c1ccc(O)c(O)c1)c1ccccc1Cl (single isomer, unassigned; (-)) [Compound 4I, (−)-3-O-(o-chlorobenzoyl) mesquitol] | –
